These results are taken from patent publication US10174002B2, “Pyridine derivatives as CFTR modulators” (NuBridge BioSciences, priority 2015, dated 2019).

The target in this assay is T1, ΔF508 mutant CFTR (Homo sapiens, UniProt P13569, DEL508-508).
T1 construct: expressed in transfected cells; host or cells: Fischer rat thyroid (FRT) cells, co-expressing the halide-sensitive YFP-H148Q/I152L
Nature of the assay: Fluorescence Assay of ΔF508 mutant CFTR activity (halide-sensitive YFP quenching by iodide influx in FRT cells). Type of assay: cell-based. Also on record: key: fold of mean activity with forskolin alone (I− quenching rate). To be noted: test compounds 20 μM with forskolin 20 μM, 20 min; FRT cells expressing ΔF508-CFTR and YFP-H148Q/I152L, incubated at 27° C. 20-24 h; rate of fluorescence quenching by I−, normalized to mean activity with forskolin alone. The source says:
The ΔF508 mutant CFTR activities of the CFTR modulators are detected using the Fluorescence Assay developed by Pedemonte (Pedemonte N., et al., Antihypertensive 1,4-dihydropyridines as correctors of the cystic fibrosis transmembrane conductance regulator channel gating defect caused by cystic fibrosis mutations, Mol. Pharmacol., 2005, 68, 1736-1746).
Fischer rat thyroid (FRT) cells, stably transfected with ΔF508 were retransfected with the YFP-H148Q/I152L fluorescent protein. The cells were plated (100,000 cells/well) on black 96-well microplates with clear plastic bottom (Corning Life Sciences, Acton, Mass.).
The 96-well microplates containing FRT cells expressing F508-CFTR and the halide-sensitive YFP were incubated at 27° C. for 20 to 24 h to allow rescue of the mutant protein to the plasma membrane. After incubation, cells were washed with PBS (containing 137 mM NaCl, 2.7 mM KCl, 8.1 mM Na2HPO4, 1.5 mM KH2PO4, 1 mM CaCl2, and 0.5 mM MgCl2) and stimulated for 20 min with forskolin (20 μM) and test compounds (20 μM) in a final volume of 60 μl. Microplates were then transferred to a microplate reader for CFTR activity determination. Each assay consisted of a continuous 14-s fluorescence reading (5 points per second) with 2 s before and 12 s after injection of 165 μl of an iodide-containing solution (PBS with Cl^− replaced by I^−). Final iodide concentration in the wells was 100 mM. […] To determine I^− influx rate, the final 11 s of the data for each well were fitted with an exponential function to extrapolate initial slope. CFTR activity was determined by measuring the rate of fluorescence quenching induced by extracellular addition of I^−. Data are normalized to the mean activity measured in the presence of forskolin alone.

T1 sequence (P13569 with tags, fused parts or gaps DEL508-508): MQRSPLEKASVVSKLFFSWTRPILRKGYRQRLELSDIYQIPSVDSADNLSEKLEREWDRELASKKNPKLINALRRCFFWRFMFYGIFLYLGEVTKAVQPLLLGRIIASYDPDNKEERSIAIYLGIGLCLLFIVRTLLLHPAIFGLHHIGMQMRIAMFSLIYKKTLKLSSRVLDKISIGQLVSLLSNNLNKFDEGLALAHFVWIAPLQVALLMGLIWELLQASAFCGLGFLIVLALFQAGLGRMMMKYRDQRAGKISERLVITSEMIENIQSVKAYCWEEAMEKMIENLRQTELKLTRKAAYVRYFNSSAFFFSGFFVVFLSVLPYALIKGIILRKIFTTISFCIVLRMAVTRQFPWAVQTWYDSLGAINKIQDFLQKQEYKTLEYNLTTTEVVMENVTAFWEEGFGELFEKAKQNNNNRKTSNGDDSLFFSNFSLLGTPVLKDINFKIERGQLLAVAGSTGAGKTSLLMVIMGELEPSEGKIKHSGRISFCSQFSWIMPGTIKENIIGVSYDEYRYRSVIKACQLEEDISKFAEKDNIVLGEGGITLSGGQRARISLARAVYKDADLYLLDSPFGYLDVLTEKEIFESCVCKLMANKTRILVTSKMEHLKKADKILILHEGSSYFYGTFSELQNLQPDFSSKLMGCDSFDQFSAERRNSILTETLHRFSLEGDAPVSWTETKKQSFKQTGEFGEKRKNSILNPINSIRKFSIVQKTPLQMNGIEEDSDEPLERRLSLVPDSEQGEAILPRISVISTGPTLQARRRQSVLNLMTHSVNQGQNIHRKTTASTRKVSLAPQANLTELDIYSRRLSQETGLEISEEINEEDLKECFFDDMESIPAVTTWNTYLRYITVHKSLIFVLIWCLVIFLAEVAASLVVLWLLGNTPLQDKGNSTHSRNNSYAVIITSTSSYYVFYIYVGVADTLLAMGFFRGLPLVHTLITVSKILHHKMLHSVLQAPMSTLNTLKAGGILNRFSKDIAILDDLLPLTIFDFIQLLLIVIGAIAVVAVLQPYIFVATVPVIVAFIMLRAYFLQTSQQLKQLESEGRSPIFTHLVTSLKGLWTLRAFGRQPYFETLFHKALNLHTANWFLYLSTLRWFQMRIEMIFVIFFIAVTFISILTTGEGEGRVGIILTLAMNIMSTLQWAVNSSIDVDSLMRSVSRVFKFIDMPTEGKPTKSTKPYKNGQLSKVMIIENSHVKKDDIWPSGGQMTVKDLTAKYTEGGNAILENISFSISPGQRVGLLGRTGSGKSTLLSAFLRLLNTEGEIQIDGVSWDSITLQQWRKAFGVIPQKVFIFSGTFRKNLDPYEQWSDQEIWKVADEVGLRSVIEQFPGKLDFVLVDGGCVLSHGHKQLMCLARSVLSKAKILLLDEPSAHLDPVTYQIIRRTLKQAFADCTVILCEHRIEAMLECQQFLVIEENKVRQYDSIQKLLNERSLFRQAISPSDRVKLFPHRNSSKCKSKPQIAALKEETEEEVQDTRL

Take `CN(C)CCCOc1ccncc1NC(=O)c1ccc(F)c(-c2c(F)cccc2F)n1.Cl` [Example 14, 6-(2,6-difluorophenyl)-N-(4-(3-(dimethylamino)propoxy)pyridin-3-yl)-5-fluoropicolinamide hydrochloride]: the “CFTR Activity” value is on record as 0.2.

For the molecule `Cl.Nc1cc(C(F)(F)F)c(-c2ccccc2)nc1C(=O)Nc1cnccc1OC1CCNC1` (centres unmarked) [Example 53, 3-amino-6-phenyl-N-(4-(pyrrolidin-3-yloxy)pyridin-3-yl)-5-(trifluoromethyl)picolinamide hydrochloride], the “CFTR Activity” value is 2.5.
